Earlier results on three compounds are cited in US20050256112A1, “Combination of atypical antipsychotics and 5HT-1B receptor antagonists” (Pfizer Inc, priority 2004, published 2005).

For series [1] the following is noted: background statement.
Series [2] concerns white blood cell counts. The following applies: background statement.
The conditions of series [3]: in some mammals; background statement.

Regarding `Cc1nc2n(c(=O)c1CCN1CCC(c3noc4cc(F)ccc34)CC1)CCCC2` [risperidone, 3-[2-[4-(6-fluoro-1,2-benzisoxazol-3-yl)piperidino]ethyl]-2-methyl-6,7,8,9-tetrahydro-4H-pyrido-[1,2-a]pyrimidin-4-one], the “weight gain (in words)” value in series [1] was “minimal”. For the same compound, the “effect on white blood cell count” value in series [2] is listed as “remains unaffected”.
As for `Cc1cc2c(s1)Nc1ccccc1N=C2N1CCN(C)CC1` [Olanzapine, 2-methyl-4-(4-methyl-1-piperazinyl)-10H-thieno [2,3-b][1,5] benzodiazepine], in series [1] (in some cases), the weight gain result was “up to 1 pound per week”.
As for `OCCOCCN1CCN(C2=Nc3ccccc3Sc3ccccc32)CC1` [Quetiapine, 5-[2-(4-dibenzo[b,f][1,4]thiazepin-11-yl-1-piperazinyl)ethyoxy]ethanol], the cataract formation entry in series [3] is recorded as “cause cataract formation”.
